Results from ChEMBL document CHEMBL1250471, “Synthesis and antimycobacterial activity of new quinoxaline-2-carboxamide 1,4-di-N-oxide derivatives” (2010).
Values after ≈ are worked out from the molar mass of the structure shown.

Assays:
[1] = test system: Mycobacterium tuberculosis; assay: Antimycobacterial activity against Mycobacterium tuberculosis H37Rv ATCC 27294 microplate alamar blue assay; assay type: functional
[2] = Selectivity index, ratio of CC50 for african green monkey Vero cells to MIC for Mycobacterium tuberculosis H37Rv ATCC 27294; assay type: functional

**Q.** With `COc1ccc2c(c1)[n+]([O-])c(C(=O)NCc1ccc(C(F)(F)F)cc1)c(C)[n+]2[O-]` as the compound, how does the IC90 [1] read?
**A.** > 100 µg/mL

**Q.** With `Cc1c(C(=O)NCC(c2ccccc2)c2ccccc2)[n+]([O-])c2cc(Cl)c(Cl)cc2[n+]1[O-]` as the compound, how does the IC90 [1] read?
**A.** 66.5 µg/mL (≈ 142 µM)

**Q.** With `O=C(NCCc1ccccc1)c1c(-c2ccccc2)[n+]([O-])c2ccccc2[n+]1[O-]` as the compound, how does the IC90 [1] read?
**A.** 18.6 µg/mL (≈ 48.3 µM)

**Q.** With `Cc1ccc2c(c1)[n+]([O-])c(C(=O)Nc1ccccc1)c(-c1ccccc1)[n+]2[O-]` as the compound, how does the IC90 [1] read?
**A.** 24.6 µg/mL (≈ 66.4 µM)

**Q.** Which “Selectivity Index” value [2] does the source give for `Cc1c(C(=O)NCc2ccc(Br)cc2)[n+]([O-])c2cc(Cl)ccc2[n+]1[O-]` here?
**A.** >7.5

**Q.** What about the IC90 [1] of the same compound?
**A.** 5.33 µg/mL (≈ 12.6 µM)

**Q.** Which IC90 [1] does the source give for `Cc1ccc(CNC(=O)c2c(C)[n+]([O-])c3ccc(C)cc3[n+]2[O-])cc1` here?
**A.** 99.9 µg/mL (≈ 296 µM)

**Q.** For `Cc1ccc2c(c1)[n+]([O-])c(C(=O)NCc1ccccc1)c(-c1ccccc1)[n+]2[O-]`, which IC90 [1] is on record?
**A.** 13.9 µg/mL (≈ 36.1 µM)

**Q.** With `Cc1c(C(=O)NCc2ccc3c(c2)OCO3)[n+]([O-])c2cc(Cl)c(Cl)cc2[n+]1[O-]` as the compound, how does the IC90 [1] read?
**A.** 34.9 µg/mL (≈ 82.7 µM)

**Q.** With `Cc1c(C(=O)NCc2ccc(C(F)(F)F)cc2)[n+]([O-])c2cc(C(F)(F)F)ccc2[n+]1[O-]` as the compound, how does the “Selectivity Index” value [2] read?
**A.** >11.82

**Q.** What about the IC90 [1] of the same compound?
**A.** 3.38 µg/mL (≈ 7.59 µM)

**Q.** With `O=C(NCc1ccccc1)c1c(-c2ccccc2)[n+]([O-])c2cc(Cl)c(Cl)cc2[n+]1[O-]` as the compound, how does the IC90 [1] read?
**A.** 25.4 µg/mL (≈ 57.8 µM)

**Q.** With `O=C(Nc1ccccc1)c1c(-c2ccccc2)[n+]([O-])c2ccc(F)cc2[n+]1[O-]` as the compound, how does the IC90 [1] read?
**A.** 17.9 µg/mL (≈ 47.8 µM)

**Q.** For `Cc1ccc2c(c1)[n+]([O-])c(C(=O)NCc1ccc(Cl)cc1)c(C)[n+]2[O-]`, which IC90 [1] is on record?
**A.** 14.6 µg/mL (≈ 40.7 µM)

**Q.** With `O=C(NCc1ccccc1)c1c(-c2ccccc2)[n+]([O-])c2ccc(C(F)(F)F)cc2[n+]1[O-]` as the compound, how does the IC90 [1] read?
**A.** > 100 µg/mL

**Q.** With `Cc1c(C(=O)NCc2ccc(C(F)(F)F)cc2)[n+]([O-])c2cc(Cl)c(Cl)cc2[n+]1[O-]` as the compound, how does the “Selectivity Index” value [2] read?
**A.** >6.08

**Q.** And the IC90 [1]?
**A.** 6.58 µg/mL (≈ 14.7 µM)

**Q.** For `Cc1c(C(=O)NCc2ccc(Cl)cc2)[n+]([O-])c2ccccc2[n+]1[O-]`, which IC90 [1] is on record?
**A.** 11 µg/mL (≈ 32.1 µM)

**Q.** For `Cc1c(C(=O)NCC(c2ccccc2)c2ccccc2)[n+]([O-])c2cc(Cl)ccc2[n+]1[O-]`, which IC90 [1] is on record?
**A.** 60.4 µg/mL (≈ 139 µM)

**Q.** For `O=C(NCc1ccccc1)c1c(-c2ccccc2)[n+]([O-])c2ccc(Cl)cc2[n+]1[O-]`, which “Selectivity Index” value [2] is on record?
**A.** >11.79

**Q.** What about the IC90 [1] of the same compound?
**A.** 3.39 µg/mL (≈ 8.35 µM)

**Q.** For `Cc1c(C(=O)NCc2ccc(Cl)cc2)[n+]([O-])c2cc(Cl)ccc2[n+]1[O-]`, which IC90 [1] is on record?
**A.** 29.7 µg/mL (≈ 78.5 µM)

**Q.** With `Cc1c(C(=O)NCc2ccc3c(c2)OCO3)[n+]([O-])c2ccccc2[n+]1[O-]` as the compound, how does the IC90 [1] read?
**A.** 22.8 µg/mL (≈ 64.4 µM)

**Q.** With `Cc1c(C(=O)NCc2ccc(Br)cc2)[n+]([O-])c2cc(Cl)c(Cl)cc2[n+]1[O-]` as the compound, how does the “Selectivity Index” value [2] read?
**A.** >5.78

**Q.** What about the IC90 [1] of the same compound?
**A.** 6.92 µg/mL (≈ 15.1 µM)

**Q.** For `Cc1ccc(CNC(=O)c2c(C)[n+]([O-])c3ccc(Cl)cc3[n+]2[O-])cc1`, which IC90 [1] is on record?
**A.** 32 µg/mL (≈ 89.5 µM)

**Q.** Which “Selectivity Index” value [2] does the source give for `O=C(NCc1ccccc1)c1c(-c2ccccc2)[n+]([O-])c2ccc(F)cc2[n+]1[O-]` here?
**A.** 4.62

**Q.** What about the IC90 [1] of the same compound?
**A.** 3.86 µg/mL (≈ 9.91 µM)

**Q.** For `O=C(NCc1ccccc1)c1c(-c2ccccc2)[n+]([O-])c2ccccc2[n+]1[O-]`, which “Selectivity Index” value [2] is on record?
**A.** >5.96

**Q.** What about the IC90 [1] of the same compound?
**A.** 6.71 µg/mL (≈ 18.1 µM)

**Q.** With `Cc1ccc2c(c1)[n+]([O-])c(C(=O)NCC(c1ccccc1)c1ccccc1)c(C)[n+]2[O-]` as the compound, how does the IC90 [1] read?
**A.** 16.8 µg/mL (≈ 40.6 µM)

**Q.** For `COc1ccc2c(c1)[n+]([O-])c(C(=O)Nc1ccccc1)c(-c1ccccc1)[n+]2[O-]`, which IC90 [1] is on record?
**A.** 26.8 µg/mL (≈ 69.3 µM)

**Q.** With `Cc1c(C(=O)NCC(c2ccccc2)c2ccccc2)[n+]([O-])c2ccccc2[n+]1[O-]` as the compound, how does the IC90 [1] read?
**A.** 16 µg/mL (≈ 40 µM)

**Q.** With `COc1ccc2c(c1)[n+]([O-])c(C(=O)NCc1ccccc1)c(-c1ccccc1)[n+]2[O-]` as the compound, how does the IC90 [1] read?
**A.** 14.6 µg/mL (≈ 36.3 µM)

**Q.** With `O=C(Nc1ccccc1)c1c(-c2ccccc2)[n+]([O-])c2cc(Cl)c(Cl)cc2[n+]1[O-]` as the compound, how does the “Selectivity Index” value [2] read?
**A.** 0.84

**Q.** What about the IC90 [1] of the same compound?
**A.** 6.63 µg/mL (≈ 15.6 µM)

**Q.** With `O=C(NCCc1ccccc1)c1c(-c2ccccc2)[n+]([O-])c2ccc(Cl)cc2[n+]1[O-]` as the compound, how does the IC90 [1] read?
**A.** 15.4 µg/mL (≈ 36.7 µM)

**Q.** For `Cc1c(C(=O)NCc2ccc(C(F)(F)F)cc2)[n+]([O-])c2cc(Cl)ccc2[n+]1[O-]`, which “Selectivity Index” value [2] is on record?
**A.** >6.52

**Q.** And the IC90 [1]?
**A.** 6.13 µg/mL (≈ 14.9 µM)

**Q.** With `O=C(Nc1ccccc1)c1c(-c2ccccc2)[n+]([O-])c2ccc(Cl)cc2[n+]1[O-]` as the compound, how does the “Selectivity Index” value [2] read?
**A.** 1.34

**Q.** What about the IC90 [1] of the same compound?
**A.** 6.71 µg/mL (≈ 17.1 µM)

**Q.** Which IC90 [1] does the source give for `O=C(Nc1ccccc1)c1c(-c2ccccc2)[n+]([O-])c2ccccc2[n+]1[O-]` here?
**A.** 27 µg/mL (≈ 75.5 µM)

**Q.** Which IC90 [1] does the source give for `Cc1ccc2c(c1)[n+]([O-])c(C(=O)NCc1ccc3c(c1)OCO3)c(C)[n+]2[O-]` here?
**A.** 13.2 µg/mL (≈ 36 µM)

**Q.** With `Cc1c(C(=O)NCc2ccc(Br)cc2)[n+]([O-])c2ccccc2[n+]1[O-]` as the compound, how does the IC90 [1] read?
**A.** 15.6 µg/mL (≈ 40.2 µM)

**Q.** For `Cc1ccc(CNC(=O)c2c(C)[n+]([O-])c3ccccc3[n+]2[O-])cc1`, which “Selectivity Index” value [2] is on record?
**A.** >5.92

**Q.** What about the IC90 [1] of the same compound?
**A.** 6.76 µg/mL (≈ 20.9 µM)

**Q.** Which IC90 [1] does the source give for `Cc1c(C(=O)NCc2ccc(C(F)(F)F)cc2)[n+]([O-])c2ccccc2[n+]1[O-]` here?
**A.** 16.8 µg/mL (≈ 44.6 µM)

**Q.** Which results are given for `Cc1c(C(=O)NCc2ccc3c(c2)OCO3)[n+]([O-])c2cc(Cl)ccc2[n+]1[O-]`?
**A.** Selectivity Index [2]: >5.72; IC90 [1]: 6.99 µg/mL (≈ 18 µM)

**Q.** For `CO[C@H]1/C=C/O[C@@]2(C)Oc3c(C)c(O)c4c(O)c(c(/C=N/N5CCN(C)CC5)c(O)c4c3C2=O)NC(=O)/C(C)=C\C=C\[C@H](C)[C@H](O)[C@@H](C)[C@@H](O)[C@@H](C)[C@H](OC(C)=O)[C@@H]1C` [RIFAMPIN], which “Selectivity Index” value [2] is on record?
**A.** >800

**Q.** And the IC90 [1]?
**A.** 0.015 µg/mL (≈ 0.0182 µM)

**Q.** With `Cc1c(C(=O)NCc2ccc(Cl)cc2)[n+]([O-])c2cc(Cl)c(Cl)cc2[n+]1[O-]` as the compound, how does the IC90 [1] read?
**A.** 51.9 µg/mL (≈ 126 µM)

**Q.** What does the source list for `Cc1c(C(=O)NCc2ccc(C(F)(F)F)cc2)[n+]([O-])c2cc(F)ccc2[n+]1[O-]`?
**A.** Selectivity Index [2]: >8.94; IC90 [1]: 4.48 µg/mL (≈ 11.3 µM)

**Q.** For `Cc1ccc2c(c1)[n+]([O-])c(C(=O)NCc1ccc(Br)cc1)c(C)[n+]2[O-]`, which IC90 [1] is on record?
**A.** 78.2 µg/mL (≈ 194 µM)

**Q.** Which IC90 [1] does the source give for `Cc1ccc2c(c1)[n+]([O-])c(C(=O)NCc1ccc(C(F)(F)F)cc1)c(C)[n+]2[O-]` here?
**A.** > 100 µg/mL

**Q.** With `O=C(Nc1ccccc1)c1c(-c2ccccc2)[n+]([O-])c2ccc(C(F)(F)F)cc2[n+]1[O-]` as the compound, how does the IC90 [1] read?
**A.** 19.1 µg/mL (≈ 44.9 µM)

**Q.** Which IC90 [1] does the source give for `Cc1ccc(CNC(=O)c2c(C)[n+]([O-])c3cc(Cl)c(Cl)cc3[n+]2[O-])cc1` here?
**A.** > 100 µg/mL
